Source: patent US10071042B2, “External dermatological agent for anti-ageing” (Hayashibara Co., Ltd., priority 2014, dated 2018)
Read-outs that look alike come from different tables or passages of the source. Marks after values point to notes of the source that are not given here.

Key:
3T3 = assay: TG432: In vitro 3T3 NRU Phototoxicity Test; assay type: cell-based
Source text: Based on this, external dermal agent containing any of adenosine N1-oxide 5′-phosphate, analogues thereof, and their salts can be said to be safe.

[1] = Photostability under fluorescent lamp, HPLC residual percentage (Experiment 10); assay type: physicochemical; details: fluorescent lamp about 4,000 lux, 28° C.
Experimental: To 25 mg of each of the test substances in Table 13 was added each of Mcllvain buffers adjusted to different pHs to give a total volume of 50 mL and distributed to transparent glass screw bottles (5 mL) with plastic screw caps equal to the number of the test substances by 2.0 mL. Under a fluorescent lamp with about 4,000 lux at 28° C., the glass screw bottles were allowed to lay along. Sodium adenosine N1-oxide 5′-phosphate and 5′-glucosyl adenosine N1-oxide were respectively analyzed on HPLC at the initiation of the test and at eight weeks after initiating the experiment, and at the initiation of the test and at two weeks intervals up to eight weeks after the initiation, followed by taking out one of the bottles for HPLC analysis. The analysis was repeated three times and the average residual percentage of each test substance was calculated based on the area ratio against the peak area for each test substance upon HPLC chromatogram at the initiation of the experiment. […] Equation: Residual percentage (%) of test substance=[(Average peak area after a prescribed time lapse at respective pHs for each test substance)/(Average peak area at the initiation of experiment at respective pHs for each test substance)]×100

elastin = assay: Elastin production of normal human dermal fibroblasts, colorimetric kit (Experiment 4); assay type: cell-based; details: 2 days, control = 100%
Experimental: Normal human dermal fibroblasts (NHDF), which had been suspended in a Dulbecco's Modified Eagle Medium supplemented with 10% fetal calf serum to give a cell concentration of 3×10^5 cells/mL, were placed in 24-well plates by 0.5 mL/well and cultured for one day. The cultured cells were washed with Dulbecco's phosphate buffered saline and cultured for another two days in a Dulbecco's Modified Eagle Medium, supplemented with any one of the test substances in Table 5 at respective concentrations shown in the table, to induce elastin synthesis. Thereafter, each culture supernatant was collected, and the remaining cells were washed with one milliliter of Dulbecco's phosphate buffered saline, added with 0.1 mL of 0.25% trypsin and ethylenediaminetetraacetate, followed by incubation at 37° C. for two minutes to detach the cells from the plates. A half milliliter of Dulbecco's phosphate buffered saline was added to each plate, and the resulting cell suspensions were collected in a 1.5-mL tube which was then subjected to centrifugation (3,000×g for five minutes) to collect the cells. Elastin was quantified with a colorimetric determination kit commercialized by Biocolor Ltd., […]. The previously collected supernatant was used to suspend the collected cells, to which was then added 0.16 mL of 1 M oxalic acid, a reagent affixed to the kit, and incubated at 100° C. for one hour to solubilize elastin. To the solubilized elastin placed in a container was added 0.66 mL of an elastin precipitant as a reagent affixed to the kit, mixed for 15 min while repeatedly reversing the container, and centrifuged at 10,000×g for 10 min to precipitate proteins. A half milliliter of a dye, as a reagent affixed to the kit, was added to the resulting precipitate, followed by repeatedly reversing the container for 90 min and centrifuged at 10,000×g for 10 min to collect sediments bound with the dye. Thereafter, the collected sediments were added with 0.25 mL of a dye separator as a reagent affixed to the kit, and mixed for one hour while repeatedly reversing a container with the resulting mixture, followed by determining the absorbance of the resulting mixture at a wavelength of 490 nm and calculating the amount of elastin per well. A calibration curve was generated with an accessory for the kit. A control system was provided by similarly treating normal human dermal fibroblasts (NHDF) without adding any test substance and determined for its absorbance at a wavelength of 490 nm. Regarding the absorbance as 100%, the production level of elastin of each test substance was comparatively evaluated based on the following equation. Equation: Production level of elastin (relative value (%))=[(Absorbance of a sample with any one of test substances)/(Absorbance of control)]×100
The experiment was repeated three times, and the data was compared to that of control with the Dunnett's multiple comparisons test. The symbol “*” means a level of significance of p<0.01.

endothelin-1 = assay: Endothelin-1 production after ultraviolet B irradiation, ELISA (Experiment 6); assay type: cell-based, human; details: for Production level of endothelin-1 (%): ultraviolet B 40 mJ/cm^2, control = 100%
Experimental: Normal human epidermal keratinocytes were proliferated to a confluent state at which the cells were grown over the entire bottom edge of each well of 96-well microplates by using “EpiLife”, a product name of a culture medium containing a growth factor for keratinocytes, commercialized by Life Technologies Corporation, CA, USA, and further cultured for another two days while replacing the medium with a fresh culture medium free of such a growth factor. Thereafter, the resulting cultures were added with sodium adenosine N1-oxide 5′-phosphate to give a concentration of 10, 20, or 50 μM, and allowed to stand for six hours. The cultured cells were washed with Hanks buffer, irradiated with ultraviolet B radiation at an intensity of 40 mJ/cm^2, and further cultured for 24 hours after the addition of a culture medium containing the growth factor. Endothelin-1 in the resulting supernatants was detected with an endothelin-1 specific ELISA kit, commercialized by R&D Systems Inc., MN, USA, colored with tetramethylbenzidine, and measured for absorbance at a wavelength of 450 nm. A control system was provided and similarly treated as above except for not adding sodium adenosine N1-oxide 5′-phosphate and then determined for the production level of endothelin-1 in the resulting culture supernatant to be regarded as 100%. The production level of endothelin-1 for each test substance was comparatively evaluated based on the following equation. Equation: Production level of endothelin-1 (relative value (%))=[(Absorbance of a sample with a test substance)/(Absorbance of control)]×100 The experiment was repeated three times, and the data was compared to that of control with the Dunnett's multiple comparisons test. The symbol “*” means a level of significance of p<0.01.

[2] = test system: normal human epidermal keratinocytes; assay: Number of cells, methylene blue (Experiment 6); assay type: cell-based; details: for Number of cells (%): control = 100%
Experimental: The number of proliferated cells was determined with methylene blue and regarded as 100% for use in calculating the variation of cells with any one of the test substances.

[3] = pH 4 to 5, at the initiation of experiment
[4] = pH 6 to 7, at the initiation of experiment
[5] = pH 8 to 9, at the initiation of experiment

Row | Compound | optical toxicity (3T3) | Residual percentage (%) [1, 3] | Residual percentage (%) ([1]; pH 4 to 5, eight weeks) | Residual percentage (%) ([1]; pH 4 to 5, four weeks) | Residual percentage (%) ([1]; pH 4 to 5, six weeks) | Residual percentage (%) ([1]; pH 4 to 5, two weeks) | Residual percentage (%) [1, 4] | Residual percentage (%) ([1]; pH 6 to 7, eight weeks) | Residual percentage (%) ([1]; pH 6 to 7, four weeks) | Residual percentage (%) ([1]; pH 6 to 7, six weeks) | Residual percentage (%) ([1]; pH 6 to 7, two weeks) | Residual percentage (%) [1, 5] | Residual percentage (%) ([1]; pH 8 to 9, eight weeks) | Residual percentage (%) ([1]; pH 8 to 9, four weeks) | Residual percentage (%) ([1]; pH 8 to 9, six weeks) | Residual percentage (%) ([1]; pH 8 to 9, two weeks) | Production level of elastin (%) (elastin; 10 μM) | Production level of elastin (%) (elastin; 1 μM) | Production level of elastin (%) (elastin; 4 μM) | also measured
1 | 3′-α-glucosyl adenosine N1-oxide [3′-α-Glucosyladenosine N1-oxide] | no optical toxicity | – | – | – | – | – | – | – | – | – | – | – | – | – | – | – | – | – | – | –
2 | 5′-α-glucosyl adenosine N1-oxide [5′-α-Glucosyladenosine N1-oxide] | no optical toxicity | 100.0% | 9.8% | 27.3% | 9.7% | 51.7% | 100.0% | 34.3% | 57.7% | 40.8% | 79.1% | 100.0% | 24.0% | 47.8% | 35.4% | 70.7% | – | – | – | Residual percentage (%) ([1]; pH 4 to 5, eight weeks, listed as 5′-glucosyl adenosine N1-oxide): about 10%
3 | Nc1ncnc2c1ncn2[C@@H]1O[C@H](COP(=O)(O)O)[C@@H](O)[C@H]1O [Adenosine 5′-phosphate, reference compound] | – | – | – | – | – | – | – | – | – | – | – | – | – | – | – | – | 114.4% | – | – | Production level of elastin (%) (elastin; 40 μM): 117.2%; Production level of elastin (%) (elastin; 100 μM): 120.0* %
4 | Nc1c2ncn([C@@H]3O[C@H](CO)[C@@H](O)[C@H]3O)c2nc[n+]1[O-] [Adenosine N1-oxide, adenosine N1-oxide] | no optical toxicity | 100.0% | 24.6% | 47.2% | 25.2% | 68.8% | 100.0% | 66.2% | 81.6% | 71.3% | 90.6% | 100.0% | 63.1% | 77.2% | 68.2% | 83.7% | 118.4* % | 108.8% | 114.8% | Residual percentage (%) ([1]; pH 4 to 5, eight weeks, listed as adenosine N1-oxide): about 25%; Production level of elastin (%) (elastin; 10 μM, listed as adenosine N1-oxide): about 120%
5 | Nc1c2ncn([C@@H]3O[C@H](COP(=O)([O-])O)[C@@H](O)[C@H]3O)c2nc[n+]1[O-].[Na+] [Sodium adenosine N1-oxide 5′-phosphate, sodium adenosine N1-oxide 5′-phosphate] | – | 100.0% | 93.0% | – | – | – | 100.0% | 88.8% | – | – | – | 100.0% | 96.9% | – | – | – | 121.2* % | 98.0% | 105.2% | Production level of endothelin-1 (%) (endothelin-1; 10 μM): 104.5%; Production level of endothelin-1 (%) (endothelin-1; 20 μM): 87.9%; production level of endothelin-1 reduced by (endothelin-1; 50 μM, compared to control): about 50%; Production level of endothelin-1 (%) (endothelin-1; 50 μM): 49.9* %; optical toxicity (3T3; OECD test guideline TG432): no optical toxicity; Production level of elastin (%) (elastin; 10 μM, listed as sodium adenosine N1-oxide 5′-phosphate): about 120%; Number of cells (%) ([2]; 10 μM): 111.4%; Number of cells (%) ([2]; 20 μM): 103.6%; Number of cells (%) ([2]; 50 μM): 100.6%; influence on cell proliferation ([2]; 10 to 50 μM): No influence on cell proliferation
